# Measurements from patent US20240041886A1, “METHODS FOR TREATING SPINOCEREBELLAR ATAXIA TYPE 3” (PTC Therapeutics, Inc., priority 2021, published 2024).
# Read-outs that look alike come from different tables or passages of the source.
# Legend:
# [1] = test system: Endogenous Total ATXN3 (tATXN3) Protein; assay: Endogenous Total ATXN3 (tATXN3) Protein Assay (MSD); format: cell-based; conditions: for IC50: average IC50, total ATXN3 protein in cell lysate after 48 h, 7-point concentration curve
# Protocol: Meso Scale Discovery (MSD) 96-well or 384-well plates were coated overnight at 4° C. with Ataxin 3 mouse monoclonal antibody (Invitrogen, MA3-082) at a concentration of 0.5 μg/mL in PBS (30 μL per well). Plates were then washed three times with 300 μL wash buffer (0.05% TWEEN®-20, polyethylene glycol sorbitan monolaurate, in PBS) and blocked (Meso Scale Diagnostics, R93BA-1; 5% BSA in PBS) for 2 h at RT with rotational shaking and then washed three times with wash buffer.
# (§1) Test compounds were serially diluted 3.16-fold in 100% DMSO to generate a 7-point concentration curve. Aliquots of 0.5 μL of diluted compounds were transferred to a 96-well flat bottom plate by a liquid handler. An aliquot of 0.5 μL DMSO was also transferred to separate wells and used as controls. Duplicate samples were set up for each compound concentration and for the DMSO control.
# Cells were thawed and incubated in cell culture media (DMEM, 10% FBS, and 1% antibiotic cocktail) for 72 h. Cells were trypsinized, counted, and re-suspended to a concentration of 100,000 cells/mL in cell culture media. A 100 μL aliquot of the cell suspensions were plated at 10,000 cells per well in the compound containing 96 well microtiter plate and incubated for in a cell culture incubator (37° C., 5% CO2, 100% relative humidity). After 48 h, the medium was removed and 50-100 μL of lysis buffer (Meso Scale Diagnostics, R60TX-2) containing 1× halt protease inhibitor cocktail of (Thermo Scientific, Halt™ Protease Inhibitor Cocktail, 78430) per well was added to cells to provide a “cell lysate”. The plate was placed on a shaker at 4° C. for 30 minutes, then stored at −80° C.
# Cell lysate samples (25 μL) were transferred to the antibody-coated MSD plate and incubated overnight at 4° C. After removal of the lysates, the plate was washed three times with wash buffer, and 25 μL of Ataxin 3 recombinant rabbit monoclonal antibody (Invitrogen, #702788) secondary antibody (diluted to 0.25 μg/mL in 0.05% TWEEN®-20 in blocking buffer) was added to each well and incubated with shaking for 1-2 h at room temperature. Following incubation with the secondary antibody, the wells were rinsed with wash buffer and then […] Anti Rabbit Antibody Goat SULFO-TAG Labeled (Meso Scale Diagnostics, R32AB-1) detecting antibody (diluted to 0.25 μg/mL in 0.05% TWEEN®-20 in blocking buffer) was added to each well and incubated with shaking for 1 h at room temperature. After rinsing three times with wash buffer, 150 μL of Read Buffer T with surfactant (tris-based buffer containing tripropylamine, Meso Scale Diagnostics, R92TC-1) were added to each empty well, and the plate was imaged on a SI 6000 imager (MSD) according to manufacturers' instructions provided for 96- or 384-well plates.
# ATXN3 Pre-mRNA = assay: RT-qPCR Assay to Quantify Exon 4 Skipping in ATXN3 Pre-mRNA in Cells; format: cell-based; conditions: for IC50: percent exon 4 skipping by RT-qPCR after 24 h, 7-point concentration curve
# Protocol: as §1
# Cells were thawed and incubated in cell culture media (DMEM, 10% FBS, and 1% antibiotic cocktail) for 72 h. Cells were trypsinized, counted, and re-suspended to a concentration of 100,000 cells/mL in cell culture media. A 100 μL aliquot of the cell suspensions were plated at 10,000 cells per well in the compound containing 96 well microtiter plate and incubated for in a cell culture incubator (37° C., 5% CO2, 100% relative humidity).
# After 24 h, media was aspirated from the cells and 50 μL of the RCL2 lysis buffer (10 mM Tris-HCL pH 7.4, 150 mM NaCl, 0.33% IGEPAL® CA-630) was added to each well and incubated at RT for 1 min. Chilled nuclease free water (50 μL per well) was added and the plates were immediately transferred on ice. After 1 min on ice, plates were frozen at −80° C. overnight.
# Preparation of RT-qPCR Reaction Mixture:
# An aliquot of 2 μL/well of the cell lysates was transferred using the liquid handler to the Armadillo 384-Well PCR plate containing 8 μL/well of the RT-qPCR reaction mixture that was prepared as detailed above. The plates were then sealed with MicroAmp™ Optical Adhesive Film followed by spinning down for 1 min and placed in the CFX384 thermocycler (BioRad).
# The RT-qPCR was carried out at the following temperatures for the indicated time: • Step 1:48° C. (30 min) • Step 2: 95° C. (10 min) • Step 3: 95° C. (15 sec) • Step 4: 60° C. (1 min); then, repeated Steps 3 and 4 for a total of 40 cycles.
# The percent exon 4 skipping was calculated for each dose of compound treatment using Equations 1 and 2.
# Data were fit to a dose response curve and the IC50 was interpolated using XLfit® statistical and curve fitting package.
# An IC50 value between >2.0 μM and ≤3.0 μM is indicated by one star (*). […] IC50 value between >0.5 μM and ≤1.0 μM is indicated by four stars (****). An IC50 value≤0.5 μM is indicated by five stars (*****).
Compound,IC50 ([1]; read-out: IC50),IC50 (ATXN3 Pre-mRNA; read-out: IC50),also measured
"Clc1nc(NCc2ccncc2)c2cc[nH]c2n1 [Comparison Compound 1, 2-chloro-N-(pyridin-4-ylmethyl)-7H-pyrrolo[2,3-d]pyrimidin-4-amine, reference compound]",,,ATXN3 Protein IC50 ([1]; tested according to the assay of Example 1): inactive; ATXN3 mRNA IC50 (ATXN3 Pre-mRNA; tested according to the assay of Example 2): inactive
"C[C@H](N)Cc1[nH]c2nc(Cl)nc(NCc3ccco3)c2c1F [Cpd 10, 6-[(2S)-2-aminopropyl]-2-chloro-5-fluoro-N-[(furan-2-yl)methyl]-7H-pyrrolo[2,3-d]pyrimidin-4-amine]",≤ 500 nM,≤ 500 nM,
"CNCCc1[nH]c2nc(Cl)nc(NCc3ccco3)c2c1Cl [Cpd 17, 2,5-dichloro-N-[(furan-2-yl)methyl]-6-[2-(methylamino)ethyl]-7H-pyrrolo[2,3-d]pyrimidin-4-amine]",1000 to 1500 nM,1500 to 2000 nM,
"C[C@H](N)Cc1c(Cl)c2c(NCc3ccco3)nc(Cl)nc2n1C [Cpd 23, 6-[(2S)-2-aminopropyl]-2,5-dichloro-N-[(furan-2-yl)methyl]-7-methyl-7H-pyrrolo[2,3-d]pyrimidin-4-amine]",500 to 1000 nM,500 to 1000 nM,
"C[C@H](N)Cc1c(F)c2c(NCc3ccco3)nc(Cl)nc2n1C [Cpd 24, 6-[(2S)-2-aminopropyl]-2-chloro-5-fluoro-N-[(furan-2-yl)methyl]-7-methyl-7H-pyrrolo[2,3-d]pyrimidin-4-amine]",500 to 1000 nM,1000 to 1500 nM,
"Cc1c(C[C@H](C)N)n(C)c2nc(Cl)nc(NCc3ccco3)c12 [Cpd 35, 6-[(2S)-2-aminopropyl]-2-chloro-N-[(furan-2-yl)methyl]-5,7-dimethyl-7H-pyrrolo[2,3-d]pyrimidin-4-amine]",≤ 500 nM,≤ 500 nM,
"C[C@H](N)Cc1c(F)c2c(NCc3nccs3)nc(Cl)nc2n1C [Cpd 38, 6-[(2S)-2-aminopropyl]-2-chloro-5-fluoro-7-methyl-N-[(1,3-thiazol-2-yl)methyl]-7H-pyrrolo[2,3-d]pyrimidin-4-amine]",1000 to 1500 nM,1000 to 1500 nM,
"C[C@H](N)Cc1c(F)c2c(NCc3ccncc3F)nc(Cl)nc2n1C [Cpd 41, 6-[(2S)-2-aminopropyl]-2-chloro-5-fluoro-N-[(3-fluoropyridin-4-yl)methyl]-7-methyl-7H-pyrrolo[2,3-d]pyrimidin-4-amine]",1000 to 1500 nM,2000 to 3000 nM,
"C[C@H](N)Cc1c(F)c2c(NCc3ccncc3)nc(Cl)nc2n1C [Cpd 43, 6-[(2S)-2-aminopropyl]-2-chloro-5-fluoro-7-methyl-N-[(pyridin-4-yl)methyl]-7H-pyrrolo[2,3-d]pyrimidin-4-amine]",1500 to 2000 nM,2000 to 3000 nM,
"C[C@H](N)Cc1c(F)c2c(NCc3cncs3)nc(Cl)nc2n1C [Cpd 48, 6-[(2S)-2-aminopropyl]-2-chloro-5-fluoro-7-methyl-N-[(1,3-thiazol-5-yl)methyl]-7H-pyrrolo[2,3-d]pyrimidin-4-amine]",,,IC50 [1]: inactive; IC50 (ATXN3 Pre-mRNA): inactive
"C[C@H](N)Cc1c(F)c2c(NCc3cccs3)nc(Cl)nc2n1C [Cpd 49, 6-[(2S)-2-aminopropyl]-2-chloro-5-fluoro-7-methyl-N-[(thiophen-2-yl)methyl]-7H-pyrrolo[2,3-d]pyrimidin-4-amine]",1000 to 1500 nM,500 to 1000 nM,
"C[C@H](N)Cc1c(F)c2c(NCc3ccccn3)nc(Cl)nc2n1C [Cpd 55, 6-[(2S)-2-aminopropyl]-2-chloro-5-fluoro-7-methyl-N-[(pyridin-2-yl)methyl]-7H-pyrrolo[2,3-d]pyrimidin-4-amine]",,,IC50 [1]: inactive; IC50 (ATXN3 Pre-mRNA): inactive
"C[C@H](N)Cc1c(F)c2c(NCc3cccnc3)nc(Cl)nc2n1C [Cpd 57, 6-[(2S)-2-aminopropyl]-2-chloro-5-fluoro-7-methyl-N-[(pyridin-3-yl)methyl]-7H-pyrrolo[2,3-d]pyrimidin-4-amine]",,,IC50 [1]: inactive; IC50 (ATXN3 Pre-mRNA): inactive
